The values below come from patent US20260151384A1, “ISOQUINOLINE DERIVATIVES AS PROTEIN DEGRADERS, E7 DEGRADERS, ANTIVIRALS, TUMOR THERAPEUTICS AND IMMUNE SUPPRESSIVES” (priority 2022, published 2026).

Several values for one entry are separate records, joined by “and”; a condition that tells them apart may be missing. Identical values can stand only once.

Data set [1] concerns CaSki cells. The data set is described as follows: Monolayer assay using Sulphorhodamine B (SRB) staining, CaSki. It is filed as cell-based, human.
Another data set deals with SARS-CoV-2. The data set is described as follows: microbe, parasite or virus in culture. It is filed as cell-based. The following applies: for % Inhibition of SARV-CoV-2 virus activity: 1.25 μM, n4.
For data set [2], the system named is CaSki cells. The experiment in a line: Cell cycle analysis using Propidium-Iodide staining (flow cytometry). The class given is cell-based, human. As to conditions: 48 hour incubation. Here is the method: Propidium-Iodide (PI) DNA staining is performed to facilitate cell cycle analysis. For PI-DNA staining, fixed cells and eventually antibody-stained cells are resuspended in 450 μl of PBS (per 10^6 cells) and incubated with 100 μg/ml RNase (stock 1 mg/ml, in PBS) for 10 minutes at 37° C. Cells are then incubated with 5 μg/106 cells of PI (stock 1 mg/ml in PBS) for 10 minutes at room temperature. Samples are stored at 4° C. until CF analysis.
CaSki cells were incubated with various compounds and cell cycle distribution of the cells was assessed using Propidium-Iodide staining.
In order to analyze the cytostatic versus the cytotoxic effect of OC compounds, cell cycle profiles were analyzed in vitro after 48 hour incubations using Flow Cytometry as a read out. For this a cell cycle analysis from selected OC E7 degrader compounds was conducted in CaSki cells. Using 6 well plates, 1.5×10^5 cells were seeded for each well and grown over night at 37° C. 5% CO2. For analysis of the cell cycle behavior, cells were analyzed in the presence of propidium Iodide (PI^−) by flow cytometry (FC). Briefly, cells were detached by trypsin digestion, all supernatants were included in the analysis, and fixed with 70% ice cold ethanol and stored at 4° C. until FC analysis using P1^− staining (1 mg/ml). At least 7000 events were acquired for each sample.

Data set [3] deals with human cervical carcinoma (CaSki) xenograft. The data set is described as follows: Antitumor efficacy on CaSki human cervical carcinoma xenograft model. The class given is in vivo, nude mice. As to conditions: for % TGI (Day 44), percentage tumor growth inhibition with respect to controls: OC246/OC974 2 mg/kg os. On the procedure:
The aim of this study was to assess the in vivo efficacy of OC246 and OC974 on a human cervical carcinoma (CaSki) xenograft model in nude mice. OC246 and OC974 were administered oral once daily for four times with three days off, for three cycles at 2 mg/kg/dose. Cisplatin (CDDP) was used as a reference compound with three weekly intravenous (q7dx3) administrations of 6 mg/kg.
For orientation: A xenograft is tissue or cells of one species grown in another, often human tumour cells in immunodeficient mice.

The target of the next data set is HPV16 E7 protein (Human papillomavirus type 16, UniProt P03129). It is filed as cell-based. As to conditions: for % Dad: adjusted degradation, CHX steady state set to 100%, Table 2 screen.
Chain of HPV16 E7 protein (P03129 whole entry): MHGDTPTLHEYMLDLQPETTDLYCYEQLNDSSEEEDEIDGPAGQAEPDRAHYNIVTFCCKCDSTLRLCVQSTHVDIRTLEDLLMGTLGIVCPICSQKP

For orientation: EC50 means the concentration at which the effect is half-maximal. What is called inhibition is the change of the read-out against control, counted positive when it falls. Consider `CN1CCC(CN2C(=O)c3ccccc3[C@@H](C(=O)Nc3cccc(N4CCN(C)CC4)c3)[C@@H]2c2ccc(C(F)(F)F)cc2)CC1` (relative stereo) [OC974, rel-(3R,4R)-N-(3-(4-methylpiperazin-1-yl)phenyl)-2-((1-methylpiperidin-4-yl)methyl)-1-oxo-3-(4-(trifluoromethyl)phenyl)-1,2,3,4-tetrahydroisoquinoline-4-carboxamide], for which the half-maximal effective concentration (EC50) in the data set on CaSki cells [1] (Homo sapiens, Ca-Ski, read-out: EC50 mean [nM]) is 1550 nM. In addition, in the data set on SARS-CoV-2 (Severe acute respiratory syndrome coronavirus 2, n4, read-out: % Inhibition of SARV-CoV-2 virus activity), the inhibition at 1.25 µM was found to be 54.3%. Besides, the “G1/5 μM” value in the data set on CaSki cells [2] (5 μM, % cells in G1, no treatment 53.3) was found to be 49.6%. Also, the “G2/5 μM” value with CaSki cells [2] (5 μM, % cells in G2, no treatment 15.6) is recorded as 9.9%. The “A*/5 μM (Apoptosis as measured from total SUB G1 content)” value with CaSki cells [2] (5 μM, no treatment 15.0) amounted to 19.5%. Further, the “G1/10 μM” value in the data set with CaSki cells [2] (10 μM, % cells in G1, no treatment 53.3) is recorded as 8.7%. The “G2/10 μM” value in the data set with CaSki cells [2] (10 μM, % cells in G2, no treatment 15.6) was 0.8%. Moreover, the “A*/10 μM (Apoptosis as measured from total SUB G1 content)” value with CaSki cells [2] (10 μM, no treatment 15.0) is 82.9% and 81.8%. Also, the “Tumor Volume Day 44 (mm^3 ± SD)” value in data set [3] (OC246/OC974 2 mg/kg os daily 4 x week 3 cycles, CDDP 6 mg/kg i.v. q7dx3, n = 7, control 1099 ± 503) came to 307 ± 171 mm^3. In addition, the “% TGI (Day 44), percentage tumor growth inhibition with respect to controls” value in data set [3] (CDDP 6 mg/kg i.v. q7dx3) was 63.9%. In addition, in data set [3] (between first day of treatment (day 20) and Day 44, control +4.9), the “Δ% Body Weight” value was “+1.1%”. The “Δ% on Day 44” value in data set [3] (same schedules, control 100) was 23%.
`COc1ccc2c(c1)C(=O)N(CC1CCN(C)CC1)[C@@H](c1ccc(C(F)(F)F)cc1)[C@@H]2C(=O)Nc1cccc(N2CCN(C)CC2)c1` (relative stereo) [VS977, rel-(3R,4R)-7-methoxy-N-(3-(4-methylpiperazin-1-yl)phenyl)-2-((1-methylpiperidin-4-yl)methyl)-1-oxo-3-(4-(trifluoromethyl)phenyl)-1,2,3,4-tetrahydroisoquinoline-4-carboxamide]: in the data set on CaSki cells [1] (CaSki, Test 21, FIG. 12), the “SRB anti-neoplastic effect compared among VS035, VS977, VS978, OC969” value was “strongest effect”.
Turning to `[NH2][Pt]([NH2])([Cl])[Cl]` [CDDP, Cisplatin, reference compound], the “% TGI (Day 44), percentage tumor growth inhibition with respect to controls” value in data set [3] (CDDP 6 mg/kg i.v. q7dx3) stood at 79.2%.
On to `C[C@@H]1C[C@@H]([C@H](O)CC2CC(=O)NC(=O)C2)C(=O)[C@@H](C)C1` [CHX, Cycloheximide, reference compound], for which the “% Dab” value at HPV16 E7 protein (CaSki cells, 10 μM, four hours, CHX set to 100%) is 100%. In addition, at HPV16 E7 protein (CaSki cells, 10 μM, four hours, vehicle T 8.06), the “Measured MFI (mean fluorescence intensity) of E7 signal” value stood at 1.71.
Consider `COc1ccc2cc1Oc1ccc(cc1)C[C@H]1c3c(cc4c(c3Oc3cc5c(cc3OC)CCN(C)[C@@H]5C2)OCO4)CCN1C` [Cepharantin], for which, in the data set on SARS-CoV-2, the “% Inhibition of SARV-CoV-2 virus activity” value is listed as 2.32%.
Still for that read-out and setting: in the case of `c1c2c(cc3c1OCO3)-c1cc3ccc4c(c3c[n+]1CC2)OCO4` [Coptisin] it was 98.97%; in that of `CS(=O)(=O)O.Cc1c(O)cccc1C(=O)N[C@@H](CSc1ccccc1)[C@H](O)CN1C[C@H]2CCCC[C@H]2C[C@H]1C(=O)NC(C)(C)C` [Neifinavir-Mesylat], 9.49%.
Regarding `Cc1ccc(CN2C(=O)c3ccccc3C(C(=O)NCc3ccc(Cl)cc3)C2c2ccc(Cl)cc2)cc1` (stereo not drawn) [OC253], on HPV16 E7 protein, the “% Dad” value is on record as 0%.
The same measure, in the same setting: in the case of `Cc1ccc(CN2C(=O)c3ccccc3C(C(=O)NCc3ccc(C(C)C)cc3)C2c2ccc(Cl)cc2)cc1` (stereo not drawn) [OC254] it was 16%.
On the same count and under the same terms, in the case of `CCNC(=O)N1CCN(C(=O)C2c3ccccc3C(=O)N(Cc3ccc(C)cc3)C2c2ccc(Cl)cc2)CC1` (stereo not drawn) [OC257] it was 12%.
As for `CCC(=O)N1CCN(c2ccc(-n3c(=O)ccc4cnc5ccc(-c6cnc7ccccc7c6)cc5c43)cc2C(F)(F)F)CC1` [Torin1], in the data set with SARS-CoV-2, the “% Inhibition of SARV-CoV-2 virus activity” value is recorded as 7.00%.
Same read-out and setting: in the case of `Nc1ccc(-c2ccc3ncc4ccc(=O)n(-c5cccc(C(F)(F)F)c5)c4c3c2)cn1` [Torin2] it was 1.46%.
